In patent US3950537A, “Gastrointestinally active thioureas” (Rohm and Haas Company, priority 1975, dated 1976):
Counter-ions that a name gives are not always drawn.

Key:
[1] = test system: charcoal entering the cecum; experiment: Antimotility test (charcoal entering the cecum); assay type: in vivo, mice (adult male); details: for ED50: Mus musculus, oral, 1 h before charcoal, examined 3.5 h after charcoal, maximum dosage 30 mg./kg., read-out: Antimotility ED50 (prevented the charcoal from entering the cecum in 50% of the treated mice); for found to be active in the antimotility tests: mice, in words
Experimental: Adult male mice weighing in the range of 20 to 30 g. were starved for 24 hours prior to the test. The animals were then treated orally with the test compound dissolved in water or suspended in methyl cellulose. One hour later, each animal was dosed with 0.2 ml. of a charcoal suspension consisting of 5% activated charcoal suspended in 0.25% methyl cellulose. The animals were sacrificed 3.5 hours after the charcoal administration and their cecums examined for the presence or absence of charcoal. […] A maximum dosage of 30 mg./kg. was used.

diarrhea = experiment: Antidiarrheal test (castor oil diarrhea); assay type: in vivo, Swiss-Webster mice (adult male); details: Mus musculus; oral, 1 h before castor oil; diarrhea noted 3 h later; maximum 30 mg./kg.; read-out: Antidiarrheal ED50 (inhibited diarrhea in 50% of the treated mice)
Experimental: In this test adult male Swiss-Webster mice weighing 30 to 40 g. were employed, using 6 mice per treatment. The test compound was administered orally in a dosage series with a maximum of 30 mg./kg. either in water if soluble or else in 0.5% methyl cellulose. One hour after treatment, each animal received a single dose of 0.3 ml. of castor oil, administered orally. The animals were then individually caged and provided food and water.

gastric secretion = experiment: Antisecretory test (pyloric ligation, gastric secretion volume); assay type: in vivo, Wistar rats (adult female); details: for ED50: Rattus norvegicus, orally 1 hour prior to pyloric ligation or subcutaneously immediately after, 5 h after ligation, maximum dosage 10 mg./kg., read-out: Antisecretory Activity ED50 (50% reduction in the volume of gastric secretion); for found to be active in the antisecretory test: rats, pyloric ligation, in words
Experimental: Adult female Wistar rats weighing 140 to 160 g. were starved for 24 hours prior to the test. The animals were anaesthetized with ether, shaved on the abdomen, and a small midline incision made. The pylorus was exposed, ligated, and the wound subsequently closed with wound clips. The animals were treated with the test compound administered either orally 1 hour prior to pyloric ligation or subcutaneously immediately after ligation. The test compound was administered in distilled water or 0.5% methyl cellulose. Six animals were used for each treatment. Five hours following the ligation, the animals were sacrificed, the stomachs were carefully removed and opened, and the gastric contents measured for volume and titratable acidity. […] A maximum dosage of 10 mg./kg. was used for the test compounds.

| Compound | ED50 [1] | ED50 (diarrhea) | ED50 (gastric secretion) | found to be active in the antimotility tests [1] | found to be active in the antisecretory test (gastric secretion) |
| --- | --- | --- | --- | --- | --- |
| COc1ccc(NC(=S)NCCO)c(C)c1 [R] | 12.5 mg/kg | 30 mg/kg | > 10 mg/kg |  |  |
| Cc1cc(Br)ccc1NC(=S)NCCO [O] | 18.5 mg/kg | > 30 mg/kg | < 10 mg/kg |  |  |
| CCc1ccccc1NC(=S)NCCO [B] | > 15 mg/kg | 15 to 30 mg/kg | > 10 mg/kg |  |  |
| Cc1ccc(NC(=S)N(CCO)CCO)c(C)c1 [AM] | > 30 mg/kg | > 30 mg/kg | > 10 mg/kg |  |  |
| Cc1ccc(NC(=S)NCCS)c(C)c1 [AK] | 15 to 30 mg/kg | > 30 mg/kg | > 10 mg/kg |  |  |
| Cc1ccccc1NC(=S)NCCO [Preparation A, 1-(2-methylphenyl)-3-(2-hydroxyethyl)thiourea] |  |  |  | active | active |
| CN1[C@@H]2CC[C@H]1C[C@@H](OC(=O)C(CO)c1ccccc1)C2 (stereo partly shown) [atropine, reference compound] | 9.8 mg/kg | > 40 mg/kg |  |  |  |
| Cc1ccc(Cl)cc1NC(=S)NCCO [M] | 7.4 mg/kg | 15 to 30 mg/kg | > 10 mg/kg |  |  |
| Cc1cc(Cl)ccc1NC(=S)NCCO [L] | 15 to 30 mg/kg | < 30 mg/kg | 1 to 3 mg/kg |  |  |
| OCCNC(=S)Nc1cccc2ccccc12 [T] | 7 mg/kg | 15 to 30 mg/kg |  |  |  |
| Cc1cccc(C)c1NC(=S)N(C)C [AC] | < 30 mg/kg |  | > 10 mg/kg |  |  |
| Cc1ccc(NC(=S)NCCN)c(C)c1 [Preparation AG] |  |  |  | active |  |
| COc1ccc(NC(=S)NCCO)c(C)c1 [Preparation R] |  |  |  | active |  |
| Cc1cc(O)ccc1NC(=S)NCCO [Q] | > 30 mg/kg | > 30 mg/kg | > 10 mg/kg |  |  |
| Cc1ccc(NC(=S)NC(C)(C)CO)c(C)c1 [AO] | < 30 mg/kg | > 30 mg/kg | > 10 mg/kg |  |  |
| Cc1cc(Cl)ccc1NC(=S)N(C)C [AD] | < 30 mg/kg |  | > 10 mg/kg |  |  |
| Cc1cccc(C)c1NC(=S)N(C)C [Preparation AC] |  |  |  | active |  |
| Cc1cccc(NC(=S)NCCO)c1C [Preparation E] |  |  |  | active | active |
| CC(C)c1ccccc1NC(=S)NCCO [C] | > 30 mg/kg | > 30 mg/kg | > 10 mg/kg |  |  |
| Cc1ccc(NC(=S)NCCN)c(C)c1 [AG] | 13 mg/kg | 10 mg/kg | > 10 mg/kg |  |  |
| Cc1ccc(NC(=S)NCCCO)c(C)c1 [AQ] | > 30 mg/kg | > 30 mg/kg | > 10 mg/kg |  |  |
| CCNC(=S)Nc1ccc(C)cc1C [AF] | > 30 mg/kg |  | > 10 mg/kg |  |  |

| Compound | ED50 [1] | ED50 (diarrhea) | ED50 (gastric secretion) | found to be active in the antimotility tests [1] | found to be active in the antisecretory test (gastric secretion) |
| --- | --- | --- | --- | --- | --- |
| Cc1ccccc1NC(=S)NCCO [A] | 11.5 mg/kg | 7.8 mg/kg | 3 to 10 mg/kg |  |  |
| Cc1cccc(C)c1NC(=O)NCCO [AR] | > 30 mg/kg | > 30 mg/kg | > 10 mg/kg |  |  |
| Cc1ccc(NC(=S)NCCO)cc1C [I] | > 30 mg/kg | > 30 mg/kg | > 10 mg/kg |  |  |
| Cc1cccc(C)c1NC(=S)NCCO [Preparation H, 1-(2,6-dimethylphenyl)-3-(2-hydroxyethyl)thiourea] |  |  |  | active | active |
| Cc1ccc(Cl)cc1NC(=S)NCCO [Preparation M] |  |  |  | active |  |
| Cc1ccc(NC(=S)NCC(C)O)c(C)c1 (stereo not shown) [AP] | > 30 mg/kg | > 30 mg/kg | > 10 mg/kg |  |  |
| Cc1ccc(C)c(NC(=S)NCCO)c1 [G] | > 30 mg/kg | > 30 mg/kg | > 10 mg/kg |  |  |
| Cc1cc(Cl)ccc1NC(=S)NCCO [Preparation L] |  |  |  | active | active |
| CN1CCCN=C1COC(=O)C(O)(c1ccccc1)C1CCCCC1 (stereo not shown) [Daricon, oxyphencyclimine hydrochloride, reference compound] | 3.4 mg/kg | 50 mg/kg | 2.4 mg/kg |  |  |
| Cc1ccc(NC(=S)NCCN(C)C)c(C)c1 [Preparation AH, 1-(2,4-dimethylphenyl)-3-(2-dimethylaminoethyl)-thiourea] |  |  |  | active |  |
| CC(C)[N+](C)(CCOC(=O)C1c2ccccc2Oc2ccccc21)C(C)C [Pro-Banthine, propantheline bromide, reference compound] | 14.7 mg/kg | > 80 mg/kg | 8 mg/kg |  |  |
| CCc1ccccc1NC(=S)NCCO [Preparation B] |  |  |  | active |  |
| Cc1cccc(Cl)c1NC(=S)NCCO [Preparation N] |  |  |  | active |  |
| Cc1ccc(NC(=S)N(C)C)c(C)c1 [AB] | 4.4 mg/kg | 3.8 mg/kg | > 10 mg/kg |  |  |
| Cc1cccc(C)c1NC(=S)NCCN [AI] | 15.5 mg/kg | 11.5 mg/kg | > 10 mg/kg |  |  |
| Cc1cc(C)cc(NC(=S)NCCO)c1 [J] | > 30 mg/kg |  | > 10 mg/kg |  |  |
| Cc1ccc(NC(=S)NCCO)cc1 [D] | > 30 mg/kg |  |  |  |  |
| Cc1ccc(NC(=S)NCCO)c(C)c1 [Preparation F, 1-(2,4-dimethylphenyl)-3-(2-hydroxyethyl)-thiourea] |  |  |  | active | active |
| Cc1cc(C)c(NC(=S)NCCO)c(C)c1 [Preparation S] |  |  |  | active | active |
| Cc1cc(C)c(NC(=S)NCCO)c(C)c1 [S] | 6.4 mg/kg | < 30 mg/kg | < 10 mg/kg |  |  |
| CNC(=S)Nc1ccc(C)cc1C [AE] | > 30 mg/kg |  | > 10 mg/kg |  |  |
| OCCNC(=S)Nc1cccc2ccccc12 [Preparation T] |  |  |  | active |  |

| Compound | ED50 [1] | ED50 (diarrhea) | ED50 (gastric secretion) | found to be active in the antimotility tests [1] | found to be active in the antisecretory test (gastric secretion) |
| --- | --- | --- | --- | --- | --- |
| Cc1ccc(NC(=S)NC(C)CO)c(C)c1 (stereo not shown) [AN] | > 30 mg/kg |  | > 10 mg/kg |  |  |
| Cc1ccccc1NC(=S)N(C)C [Preparation AA] |  |  |  | active |  |
| Cc1ccccc1NC(=S)N(C)C [AA] | < 30 mg/kg | < 30 mg/kg | > 10 mg/kg |  |  |
| COc1ccc2c3c1O[C@H]1[C@@H](O)C=C[C@H]4[C@@H](C2)N(C)CC[C@@]341 [codeine phosphate, reference compound] | 29 mg/kg | 35 mg/kg |  |  |  |
| Cc1ccc(NC(=S)N(C)C)c(C)c1 [Preparation AB] |  |  |  | active |  |
| OCCNC(=S)Nc1ccc(Cl)cc1Cl [P] | > 30 mg/kg | > 30 mg/kg | > 10 mg/kg |  |  |
| Cc1cc(Br)ccc1NC(=S)NCCO [Preparation O] |  |  |  | active |  |
| Cc1cc(Cl)ccc1NC(=S)NCCN [AJ] | 30 mg/kg |  | > 10 mg/kg |  |  |
| Cc1cccc(C)c1NC(=S)NCCO [H] | 2.4 mg/kg | 4.3 mg/kg | 0.5 to 1 mg/kg |  |  |
| Cc1cccc(NC(=S)NCCO)c1C [E] | 5 mg/kg | 12.5 mg/kg | 3 mg/kg |  |  |
| Cc1cccc(C)c1NC(=S)NCCN [Preparation AI] |  |  |  | active |  |
| Cc1c(Cl)cccc1NC(=S)NCCO [Preparation K] |  |  |  | active |  |
| Cc1ccc(NC(=S)NCCO)c(C)c1 [F] | 8.6 mg/kg | 10.5 mg/kg | 0.5 to 1 mg/kg |  |  |
| OCCNC(=S)Nc1ccc2ccccc2c1 [U] | > 30 mg/kg | > 30 mg/kg | > 10 mg/kg |  |  |
| Cc1c(Cl)cccc1NC(=S)NCCO [K] | 7.2 mg/kg | < 30 mg/kg | > 10 mg/kg |  |  |
| CCOC(=O)C1(c2ccccc2)CCN(CCC(C#N)(c2ccccc2)c2ccccc2)CC1 [Lomotil, diphenoxylate hydrochloride, reference compound] | 2 mg/kg | 9.9 mg/kg |  |  |  |
| Cc1ccc(NC(=S)N(C)CCO)c(C)c1 [AL] | > 30 mg/kg | > 30 mg/kg | > 10 mg/kg |  |  |
| Cc1cc(Cl)ccc1NC(=S)N(C)C [Preparation AD, 1-(2-methyl-4-chlorophenyl)-3,3-dimethylthiourea] |  |  |  | active |  |
| Cc1ccc(NC(=S)NCCN(C)C)c(C)c1 [AH] | 20 mg/kg | > 30 mg/kg | > 10 mg/kg |  |  |
| Cc1cc(Cl)ccc1NC(=S)NCCN [Preparation AJ] |  |  |  | active |  |
| Cc1cccc(Cl)c1NC(=S)NCCO [N] | < 30 mg/kg |  | > 10 mg/kg |  |  |
